Measurements: article PMC9146228, “Bioactivity of Novel Pyrazole-Thiazolines Scaffolds against Trypanosoma cruzi: Computational Approaches and 3D Spheroid Model on Drug Discovery for Chagas Disease” (Pharmaceutics, 2022)
Where two headings read alike, the source gives them in different places.

Experiments:
[1] = Cytotoxicity in vitro assay (CellTiter-Glo); assay type: cell-based; conditions: African green monkey, Vero cells, mean ± SD
Description: Vero cells, obtained from the Rio de Janeiro Cell Bank (BCRJ code 0245), were dissociated with trypsin–EDTA solution (0.025%), and maintained in RPMI 1640 medium supplemented with 10% fetal bovine serum (FBS) at 37 °C in a humidified atmosphere of 5% CO2.
The compound toxicity was evaluated in Vero cell cultures. Briefly, Vero cells were seeded in 96-well white culture plates at a density of 1.5 × 10^4 cells/well for 24 h at 37 °C and 5% CO2. Thereafter, the cell monolayers were washed with phosphate-buffered saline (PBS) and 200 μL of fresh medium with a serial dilution of the pyrazole-thiazoline derivatives and Bz (1.9–500 µM) added. The cell viability was determined by luminescent assay using the CellTiter-Glo Kit (Promega Corporation, Madison, WI, USA) based on the ATP level. After 72 h of treatment, 20 μL of CellTiter-Glo solution was added per well, and cultures were kept for 2 min under agitation. The luminescent signal was read on the GloMax reader (Promega Corporation, Madison, WI, USA). The concentration of compounds that reduced 50% of cell viability (CC50) was calculated by linear regression. At least three independent assays were performed in duplicate.

[2] = tested on: T. cruzi (Dm28c-Luc) intracellular amastigotes; assay: Trypanocidal activity against intracellular amastigotes in infected Vero cell monolayers; assay type: cell-based, Trypanosoma cruzi; conditions: for IC90: read-out: Trypanocidal Activity Intracellular Amastigotes IC90; for Intracellular Amastigotes SI (CC50 of Vero cells/IC50): selectivity index vs Vero cells
Description: The susceptibility of intracellular amastigotes to pyrazole-thiazoline derivatives (series 1 and 2) was evaluated using 24 h T. cruzi-infected Vero cell monolayers (10:1 parasite/host cell ratio). Then, the cultures were washed with PBS to remove non-internalized parasites, and 200 μL of fresh medium with a serial dilution of pyrazole-thiazoline derivatives and Bz (0.41–100 µM) was added for 72 h at 37 °C.
(§1) After 72 h of treatment, luciferin (300 µg/mL) was added to the culture, and the viability of the parasites was assessed by reading the luminescent signal on the GloMax reader (Promega Corporation, Madison, WI, USA). Controls were also performed in non-toxic concentrations of DMSO (≤ 1%). The concentration that reduces the number of viable parasites by 50% (IC50) or 90% (IC90) was calculated by linear regression. The selectivity index (SI) was calculated as CC50/IC50 for each parasite form.

[3] = tested on: T. cruzi (Dm28c-Luc) trypomastigotes; assay: microbe, parasite or virus in culture; assay type: cell-based, Trypanosoma cruzi; conditions: for IC50 / IC90: Trypanosoma cruzi, 24 h, Dm28c-Luc, mean ± SD; for IC50: read-out: Trypanocidal Activity Trypomastigotes IC50; for IC90: read-out: Trypanocidal Activity Trypomastigotes IC90; for Trypomastigotes SI (CC50 of Vero cells/IC50): selectivity index vs Vero cells
Description: The screening assays were performed with T. cruzi clone Dm28c (TcI) genetically modified to express luciferase gene (Dm28c-Luc), kindly provided by Dr. Cristina Henriques. Trypomastigotes were isolated from T. cruzi-infected Vero cell monolayers (10:1 parasites/host cell ratio). On the 4th day post-infection (dpi), free trypomastigotes in the culture supernatant were harvested, and the number of parasites/mL was quantified in a Neubauer chamber.
The trypanocidal activity of the pyrazole-thiazoline derivatives was evaluated against trypomastigote and intracellular amastigote forms of T. cruzi (Dm28c-Luc). Tissue-derived trypomastigotes (1 × 10^6 parasites/well) were incubated with pyrazole-thiazoline derivatives and Bz in different concentrations (0.41–100 µM) for 24 h at 37 °C in a humidified atmosphere and 5% CO2. The parasite viability was determined by the addition of luciferin (300 µg/mL), followed by luminescence detection on the GloMax microplate reader (Promega Corporation, Madison, WI, USA).
as §1

[4] = Trypanosoma cruzi, Vero, 72 h, Dm28c-Luc in Vero cells, 72 h, mean ± SD, read-out: Trypanocidal Activity Intracellular Amastigotes IC50
[5] = Trypanosoma cruzi, Vero, pIC50 = −log IC50, Dm28c-Luc clone, read-out: Intracellular Amastigotes pIC50 (converted)
[6] = Trypanosoma cruzi, Dm28c-Luc in Vero cells, 72 h, mean ± SD

Compound | melting point [°C] | CC50 at 72 h [1] [µM] | IC50 [2, 4] [µM] | IC50 [2, 5] [µM] | IC90 [2, 6] [µM] | Intracellular Amastigotes SI (CC50 of Vero cells/IC50) [2] | IC50 [3] [µM] | IC90 [3] [µM] | Trypomastigotes SI (CC50 of Vero cells/IC50) [3] | IC50 ([2]; Dm28c-Luc in Vero cells, 72 h, mean ± SD, read-out: Trypanocidal Activity Intracellular Amastigotes IC50) [µM]
Nc1c(C2=NCCS2)cnn1-c1cccc(F)c1 [Compound 1h, 2-(5-amino-1-(3-fluorophenyl)-1H-pyrazol-4-yl)-4,5-dihydrothiazole] | 230 to 232 | > 500 | > 100 | > 100 | > 100 | <5 | > 100 | > 100 | <5 | –
Clc1cc(Cl)cc(-n2cc(C3=NCCS3)cn2)c1 [Compound 2d, 2-(1-(3,5-dichlorophenyl)-1H-pyrazol-4-yl)-4,5-dihydrothiazole] | 134 to 136 | > 500 | > 100 | > 100 | > 100 | <5 | > 100 | > 100 | <5 | –
Nc1c(C2=NCCS2)cnn1-c1ccc(Cl)cc1Cl [Compound 1c, 2-(5-amino-1-(2,4-dichlorophenyl)-1H-pyrazol-4-yl)-4,5-dihydrothiazole] | 209 to 212 | > 50 | > 100 | > 100 | > 100 | <5 | > 100 | > 100 | <5 | –
Clc1cccc(-n2cc(C3=NCCS3)cn2)c1Cl [Compound 2l, 2-(1-(2,3-dichlorophenyl)-1H-pyrazol-4-yl)-4,5-dihydrothiazole] | 112 to 114 | 88.7 ± 9.3 | 25.3 ± 2.4 | 25.7 | 75.5 ± 8.3 | 3.5 | 25.8 ± 1.9 | > 100 | 3.44 | –
Nc1c(C2=NCCS2)cnn1-c1ccccc1 [Compound 1a, 2-(5-amino-1-phenyl-1H-pyrazol-4-yl)-4,5-dihydrothiazole] | 176 to 178 | 248 ± 22 | 80.7 ± 3.9 | 81.3 | > 100 | 3.1 | 66.4 ± 2.7 | > 100 | 3.7 | –
Nc1c(C2=NCCS2)cnn1-c1cccc(Cl)c1 [Compound 1b, 2-(5-amino-1-(3-chlorophenyl)-1H-pyrazol-4-yl)-4,5-dihydrothiazole] | 186 to 189 | > 500 | 95.7 ± 4.8 | 97.7 | > 100 | 5.2 | 96.9 ± 3.1 | > 100 | >5.2 | –
Nc1c(C2=NCCS2)cnn1-c1cc(Cl)cc(Cl)c1 [Compound 1d, 2-(5-amino-1-(3,5-dichlorophenyl)-1H-pyrazol-4-yl)-4,5-dihydrothiazole] | 232 to 234 | 416 ± 34.6 | 63.2 ± 5.4 | 64.6 | > 100 | 6.6 | > 100 | > 100 | – | –
Nc1c(C2=NCCS2)cnn1-c1ccc(Cl)c(Cl)c1 [Compound 1e, 2-(5-amino-1-(3,4-dichlorophenyl)-1H-pyrazol-4-yl)-4,5-dihydrothiazole] | 279 to 282 | > 500 | > 100 | > 100 | > 100 | <5 | > 100 | > 100 | <5 | –
Fc1cccc(-n2cc(C3=NCCS3)cn2)c1 [Compound 2h, 2-(1-(3-fluorophenyl)-1H-pyrazol-4-yl)-4,5-dihydrothiazole] | 92 to 94 | 37.9 ± 4.8 | < 10 | ~10 | 76.3 ± 6.1 | 4.19 | 9.8 ± 1.5 | 36.3 ± 3.2 | 3.8 | 9.1 ± 1.7
Nc1c(C2=NCCS2)cnn1-c1cccc(Br)c1 [Compound 1j, 2-(5-amino-1-(3-bromophenyl)-1H-pyrazol-4-yl)-4,5-dihydrothiazole] | 171 to 173 | > 500 | 26.6 ± 3.1 | 26.9 | > 100 | >18.7 | 52.3 ± 3.4 | > 100 | >9.5 | –
COc1ccc(-n2ncc(C3=NCCS3)c2N)cc1 [Compound 1k, 2-(5-amino-1-(4-methoxyphenyl)-1H-pyrazol-4-yl)-4,5-dihydrothiazole] | 164 to 166 | > 500 | 79.1 ± 4.4 | 79.4 | 97.3 ± 4.7 | >6.3 | 12 ± 3.5 | 93.4 ± 5.5 | >39.9 | –
Nc1c(C2=NCCS2)cnn1-c1ccc(Cl)cc1 [Compound 1f, 2-(5-amino-1-(4-chlorophenyl)-1H-pyrazol-4-yl)-4,5-dihydrothiazole] | 283 to 285 | > 500 | > 100 | > 100 | > 100 | – | 88.3 ± 7.1 | > 100 | – | –
Fc1ccc(-n2cc(C3=NCCS3)cn2)cc1 [Compound 2g, 2-(1-(4-fluorophenyl)-1H-pyrazol-4-yl)-4,5-dihydrothiazole] | 131 to 133 | 58.6 ± 8.11 | 14 ± 1.8 | 14.1 | 98 ± 3.4 | 4.18 | 7.9 ± 1 | 30.1 ± 2.8 | 7.3 | –
